In experiment [1] the target is T1, full-length hepatitis C viral protein NS3•4A (Hepatitis C virus genotype 1a, UniProt P27958).
T1 construct: hexa-histidine (N); made in house; host or cells: Sf9 insect cells (baculovirus, pVL1392)
Nature of the experiment: biochemical. Set-up: species or system HCV sub-type strain 1a.

A further experiment has as its target T2, HCV NS3 protease domain (Hepatitis C virus genotype 1b, UniProt Q9WMX2).
T2 construct: The first 181 amino acids of NS3 (residues 1027-1207 of the viral polyprotein); hexa-histidine (C); made in house; host or cells: E. coli BL21/DE3 pLysS
Kind of experiment: biochemical. To be noted: Enzyme Assay 1 (HCV NS3 Protease Domain Peptide Cleavage Assay) activity, apparent Ki class.

Where [2] appears, read: Enzyme Assay 2 (HCV NS3 Peptide Cleavage Assay) activity, apparent Ki class.
[3] abbreviates: Enzyme Assay 2, HCV NS3 Peptide Cleavage Assay, apparent Ki.

Experimental findings from patent publication US7964624B1, “Inhibitors of serine proteases” (priority 2005, dated 2011) are described below.

SMILES strings stand for the structures. pKi: −log10 of the molar value.

The pKi is −log10 of the Ki, conventionally taken in molar units. In the case of `CCC[C@H](NC(=O)[C@@H]1C[C@]2(CC(c3ccc(C)c(Cl)c3)=NO2)CN1C(=O)[C@@H](NC(=O)CC1CCCCC1)C(C)(C)C)C(=O)C(=O)NC1CC1` [Compound 3], the pKi in experiment [1] (setting [2]) was over 7.00; at HCV NS3 protease domain, 6.30 to 7.00.

Turning to `CC1(O)CCC(CC(=O)N[C@H](C(=O)N2C[C@@]3(CC(c4cccc(Cl)c4)=NO3)C[C@H]2C(=O)N[C@@H](CC2CC2)C(=O)C(N)=O)C(C)(C)C)CC1` (some centres unmarked) [Compound 5], the pKi (in experiment [1] (setting [2]); at HCV NS3 protease domain) was over 7.00 in each case.

As to `CCC[C@H](NC(=O)[C@@H]1C[C@]2(CC(c3cccc(Cl)c3)=NO2)CN1C(=O)[C@@H](NC(=O)CC1CCCCC1)C(C)(C)C)C(=O)C(=O)NC1Cc2ccccc2C1` [Compound 6], the pKi (in experiment [1] (setting [2]); on HCV NS3 protease domain) was under 6.30 in each case.

On to `CCC[C@H](NC(=O)[C@@H]1C[C@]2(CC(c3cccc(Cl)c3)=NO2)CN1C(=O)[C@@H](CC(=O)NCc1ccccc1)C(C)C)C(=O)C(=O)NC1CC1` [Compound 10], for which the pKi (in experiment [1] (setting [2]); at HCV NS3 protease domain) was under 6.30 in each case.

Consider `CCC[C@H](NC(=O)[C@@H]1C[C@]2(CC(c3cccc(Cl)c3)=NO2)CN1C(=O)[C@@H](NC(C)=O)C(C)(C)C)C(=O)C(=O)NC1CC1` [Compound 12], for which the pKi in experiment [1] (setting [2]) is over 7.00; on HCV NS3 protease domain, 6.30 to 7.00.

As for `CC(C)(C)[C@H](NC(=O)CC1CC2CCC1C2)C(=O)N1C[C@@]2(CC(c3cccc(Cl)c3)=NO2)C[C@H]1C(=O)N[C@@H](CC1CC1)C(=O)C(N)=O` (some centres unmarked) [Compound 13], the pKi (in experiment [1] (setting [2]); at HCV NS3 protease domain) was over 7.00 in each case.

For `CCC[C@H](NC(=O)[C@@H]1C[C@]2(CC(c3cccc(Cl)c3)=NO2)CN1C(=O)[C@@H](NC(=O)CC1CCCCC1)C(C)(C)C)C(=O)C(=O)NCc1nc2ccccc2s1` [Compound 17], the negative logarithm of the Ki (pKi) in experiment [1] (setting [2]) was 6.30 to 7.00; on HCV NS3 protease domain, under 6.30.

Turning to `CC(C)(C)[C@H](NC(=O)CC1CCCCC1)C(=O)N1C[C@@]2(CC(c3cc(Cl)c4c(c3)CCO4)=NO2)C[C@H]1C(=O)NC(CC1CCC1)C(=O)C(=O)NC1CC1` (some centres unmarked) [Compound 18], the pKi (in experiment [1] (setting [2]); at HCV NS3 protease domain) was over 7.00 throughout.

Take `CCC[C@H](NC(=O)[C@@H]1C[C@]2(CC(c3cccc(Cl)c3)=NO2)CN1C(=O)[C@@H](NC(=O)CC12CCCCC1C2)C(C)(C)C)C(=O)C(=O)NC1CC1` (some centres unmarked) [Compound 19]: the pKi was over 7.00 in experiment [1] (setting [2]) and 6.30 to 7.00 at HCV NS3 protease domain.

Consider `CCC[C@H](NC(=O)[C@@H]1C[C@]2(CC(c3cccc(Cl)c3)=NO2)CN1C(=O)[C@@H](CC(=O)NC1CCCCC1)C(C)C)C(=O)C(=O)NC1CC1` [Compound 21], for which the pKi (in experiment [1] (setting [2]); at HCV NS3 protease domain) was under 6.30 throughout.

On to `CC(C)(C)[C@H](NC(=O)CC1CCCCC1)C(=O)N1C[C@@]2(CC(c3cccc(Cl)c3)=NO2)C[C@H]1C(=O)N[C@@H](CC1CCC1)C(=O)C(=O)NC1CC1` [Compound 23], for which the pKi is 6.30 to 7.00 in experiment [1] (setting [2]) and over 7.00 on HCV NS3 protease domain.

Regarding `CCC[C@H](NC(=O)[C@@H]1C[C@]2(CC(c3cccc(Cl)c3)=NO2)CN1C(=O)[C@@H](NC(=O)[C@@H]1CCCN1C(=O)c1ccccc1)C(C)(C)C)C(=O)C(=O)NC1CC1` [Compound 26], the pKi was over 7.00 in experiment [1] (setting [2]) and 6.30 to 7.00 on HCV NS3 protease domain.

Regarding `CCC[C@H](NC(=O)[C@@H]1C[C@]2(CC(c3ccccc3C#N)=NO2)CN1C(=O)[C@@H](NC(=O)CC1CCCCC1)C(C)(C)C)C(=O)C(=O)NC1CC1` [Compound 28], the pKi in experiment [1] (setting [2]) is 6.30 to 7.00; at HCV NS3 protease domain it was under 6.30.

As to `CCC[C@H](NC(=O)[C@@H]1C[C@]2(CC(c3cccc(Cl)c3)=NO2)CN1C(=O)[C@@H](NC(=O)CC1(C)CCCCC1)C(C)(C)C)C(=O)C(=O)NC1CC1` [Compound 29], the pKi (in experiment [1] (setting [2]); on HCV NS3 protease domain) was 6.30 to 7.00 each time.

For the compound `CCC[C@H](NC(=O)[C@@H]1C[C@]2(CC(c3cccc(Cl)c3)=NO2)CN1C(=O)[C@@H](NC(=O)[C@@H]1CCC(=O)N1Cc1cccs1)C(C)(C)C)C(=O)C(=O)NC1CC1` [Compound 30], the figures for the pKi (in experiment [1] (setting [2]); on HCV NS3 protease domain) were over 7.00 and 6.30 to 7.00, respectively.

On to `CCC[C@H](NC(=O)[C@@H]1C[C@]2(CC(c3cccc4cccnc34)=NO2)CN1C(=O)[C@@H](NC(=O)CC1CCCCC1)C(C)(C)C)C(=O)C(=O)NC1CC1` [Compound 42], for which the pKi in experiment [1] (setting [2]) was over 7.00; on HCV NS3 protease domain it was 6.30 to 7.00.

Regarding `C=C[C@@H]1C[C@]1(NC(=O)[C@@H]1C[C@]2(CC(c3cccc(Cl)c3)=NO2)CN1C(=O)[C@@H](NC(=O)OC1CCOC1)C(C)(C)C)C(=O)NS(=O)(=O)C1CC1` (some centres unmarked) [Compound 45], the figures for the negative-log Ki (pKi) (in experiment [1] (setting [2]); at HCV NS3 protease domain) were 6.30 to 7.00 and under 6.30, respectively.

Take `CCC[C@H](NC(=O)[C@@H]1C[C@]2(CC(c3cccc(Cl)c3)=NO2)CN1C(=O)c1cc2cc(Br)ccc2[nH]1)C(=O)C(=O)NC1CC1` [Compound 46]: the pKi (in experiment [1] (setting [2]); at HCV NS3 protease domain) was under 6.30 each time.

For the compound `CCC[C@H](NC(=O)[C@@H]1CC2(CC(c3cccc(Cl)c3)=NO2)CN1C(=O)[C@H](CCSCC)NC(C)=O)C(=O)C(=O)NC1CC1` (some centres unmarked) [Compound 54], the pKi in experiment [1] (setting [2]) was 6.30 to 7.00; on HCV NS3 protease domain it was under 6.30.

As to `CCC[C@H](NC(=O)[C@@H]1C[C@]2(CC(c3csc(Cl)c3)=NO2)CN1C(=O)[C@@H](NC(=O)CC1CCCCC1)C(C)(C)C)C(=O)C(=O)NC1CC1` [Compound 62], the pKi (in experiment [1] (setting [2]); on HCV NS3 protease domain) was 6.30 to 7.00 each time.

On to `CN(C)C(=O)C(=O)[C@H](CC1CCC1)NC(=O)[C@@H]1C[C@]2(CC(c3cccc(Cl)c3)=NO2)CN1C(=O)[C@@H](NC(=O)CC1CCCCC1)C(C)(C)C` [Compound 63], for which the pKi (in experiment [1] (setting [2]); on HCV NS3 protease domain) was under 6.30 each time.

For the compound `CCC[C@H](NC(=O)[C@@H]1C[C@]2(CC(c3cccc(Cl)c3)=NO2)CN1C(=O)C1CCN(c2ccccc2)C1=O)C(=O)C(=O)NC1CC1` (some centres unmarked) [Compound 65], the pKi (in experiment [1] (setting [2]); at HCV NS3 protease domain) was under 6.30 in each case.

As to `CCOc1c(F)cc(C2=NO[C@]3(C2)C[C@@H](C(=O)N[C@@H](CC2CC2)C(=O)C(N)=O)N(C(=O)[C@@H](NC(=O)CC2CCOCC2)C(C)(C)C)C3)cc1Cl` [Compound 67], the pKi (in experiment [1] (setting [2]); at HCV NS3 protease domain) was over 7.00 in each case.

Regarding `CCC[C@H](NC(=O)[C@@H]1C[C@]2(CC(c3cccc(Cl)c3)=NO2)CN1C(=O)[C@@H](NC(=O)CC1CCCCC1)C(C)(C)C)C(=O)C(=O)NCCc1c[nH]c2cc(OC)ccc12` [Compound 69], the figures for the pKi (in experiment [1] (setting [2]); at HCV NS3 protease domain) were 6.30 to 7.00 and under 6.30, respectively.

Take `CCC[C@H](NC(=O)[C@@H]1C[C@]2(CC(c3cc(C)c(OCC)c(C)c3)=NO2)CN1C(=O)[C@@H](NC(=O)[C@H]1C[C@@H]1c1ccccn1)C(C)(C)C)C(=O)C(=O)NC1CC1` [Compound 980]: in experiment [1] (setting [3]), the pKi was 6.30 to 7.00.

Turning to `CCC[C@H](NC(=O)[C@@H]1C[C@]2(CC(c3cc(C)c(OCC)c(C)c3)=NO2)CN1C(=O)[C@@H](NC(=O)[C@@H]1C[C@H]1c1ccccn1)C(C)(C)C)C(=O)C(=O)NC1CC1` [Compound 981], the pKi in experiment [1] (setting [3]) is over 7.00.

Regarding `CCC[C@H](NC(=O)[C@@H]1C[C@]2(CC(c3cc(C)c(OCC)c(C)c3)=NO2)CN1C(=O)[C@@H](NC(=O)C1CC1c1ccncc1)C(C)(C)C)C(=O)C(=O)NC1CC1` (some centres unmarked) [Compound 982], the pKi in experiment [1] (setting [3]) is 6.30 to 7.00.

As to `CCC[C@H](NC(=O)[C@@H]1C[C@]2(CC(c3cc(C)c(OCC)c(C)c3)=NO2)CN1C(=O)[C@@H](NC(=O)[C@@H]1C[C@H]1C(C)C)C(C)(C)C)C(=O)C(=O)NC1CC1` [Compound 983], the pKi in experiment [1] (setting [3]) is over 7.00.

With `CCC[C@H](NC(=O)[C@@H]1C[C@]2(CC(c3cc(C)c(OCC)c(C)c3)=NO2)CN1C(=O)[C@@H](NC(=O)[C@@H]1C[C@H]1C1CCCCC1)C(C)(C)C)C(=O)C(=O)NC1CC1` [Compound 984], in experiment [1] (setting [3]), the pKi was over 7.00.

With `CCOc1c(C)cc(C2=NO[C@]3(C2)C[C@@H](C(=O)N[C@@H](CC2CC2)C(=O)C(=O)NC)N(C(=O)[C@@H](NC(=O)[C@@H]2C[C@H]2c2ccccc2OC)C(C)(C)C)C3)cc1C` [Compound 985], in experiment [1] (setting [3]), the pKi is over 7.00.

With `CCOc1c(C)cc(C2=NO[C@]3(C2)C[C@@H](C(=O)N[C@@H](CC2CC2)C(=O)C(=O)NC)N(C(=O)[C@@H](NC(=O)[C@H]2C[C@@H]2c2ccccn2)C(C)(C)C)C3)cc1C` [Compound 986], the pKi in experiment [1] (setting [3]) is 6.30 to 7.00.

As to `CCC[C@H](NC(=O)[C@@H]1C[C@]2(CC(c3cc(C)c(OCC)c(C)c3)=NO2)CN1C(=O)[C@@H](NC(=O)[C@@H]1C[C@H]1c1ccccc1OC)C(C)(C)C)C(=O)C(=O)NC` [Compound 991], in experiment [1] (setting [3]), the pKi is over 7.00.

For `CCC[C@H](NC(=O)[C@@H]1C[C@]2(CC(c3cc(C)c(OCC)c(C)c3)=NO2)CN1C(=O)[C@@H](NC(=O)C1C[C@H]1C(C)C)C(C)(C)C)C(=O)C(=O)NC` (some centres unmarked) [Compound 992], the pKi in experiment [1] (setting [3]) was over 7.00.

With `CCC[C@H](NC(=O)[C@@H]1C[C@]2(CC(c3cc(C)c(OCC)c(C)c3)=NO2)CN1C(=O)[C@@H](NC(=O)[C@@H]1C[C@H]1C1CCCCC1)C(C)(C)C)C(=O)C(=O)NC` [Compound 993], in experiment [1] (setting [3]), the pKi was over 7.00.

For `CCC[C@H](NC(=O)[C@@H]1C[C@]2(CC(c3cc(C)c(OCC)c(C)c3)=NO2)CN1C(=O)[C@@H](NC(=O)[C@@H]1C[C@H]1c1ccc(F)cc1)C(C)(C)C)C(=O)C(=O)NC1CC1` [Compound 994], the pKi in experiment [1] (setting [3]) is over 7.00.

Regarding `CCC[C@H](NC(=O)[C@@H]1C[C@]2(CC(c3cc(C)c(OCC)c(C)c3)=NO2)CN1C(=O)[C@@H](NC(=O)[C@@H]1C[C@H]1c1ccc(F)cc1)C(C)(C)C)C(=O)C(=O)NC` [Compound 995], in experiment [1] (setting [3]), the pKi is over 7.00.

With `CCC[C@H](NC(=O)[C@@H]1C[C@]2(CC(c3cc(C)c(OCC)c(C)c3)=NO2)CN1C(=O)[C@@H](NC(=O)[C@H]1C[C@@H]1c1ccc(F)cc1)C(C)(C)C)C(=O)C(=O)NC1CC1` [Compound 996], the pKi in experiment [1] (setting [3]) was over 7.00.

As to `CCC[C@H](NC(=O)[C@@H]1C[C@]2(CC(c3cc(C)c(OCC)c(C)c3)=NO2)CN1C(=O)[C@@H](NC(=O)[C@H]1C[C@@H]1c1ccc(F)cc1)C(C)(C)C)C(=O)C(=O)NC` [Compound 997], the pKi in experiment [1] (setting [3]) was over 7.00.
